Where two headings read alike, the source gives them in different places.

In patent publication US20190125888A1, “TARGETED CONJUGATES AND PARTICLES AND FORMULATIONS THEREOF” (priority 2015, published 2019) one finds Ligand charge, Ki and IC50 data, which are given here for eleven compounds.

A short description of series [1]: Ligand charge of maytansinoid conjugates. Type of series: physicochemical.
Another series concerns the target human SSTR2 (Homo sapiens, UniProt P30874). Kind of series: Radioligand-receptor binding assay, [125I] somatostatin, membranes from SSTR2 expressing CHO-K1 cells. The procedure: These conjugates were also assessed in an in vitro assay evaluating binding to the somatostatin receptor 2 (SSTR2). A radioligand-receptor binding assay was conducted at Eurofins Panlabs (Taiwan) to determine the affinity of conjugates described herein to the SSTR2. The assay measures binding of radiolabeled ligand, [^125I] labeled somatostatin, to human SSTR2 using membrane preparations from SSTR2 expressing CHO-K1 cells. Membranes were incubated with radiolabeled somatostatin (0.03 nM) in the presence of conjugate/compound starting at a dose of 10 uM using 6× serial dilutions to obtain a 10-pt curve. After a four hour incubation, membranes were filtered and washed 3× and counted to determine the remaining [^125I] somatostatin bound to the receptor. IC50 values were determined by a non-linear, least squares regression analysis using MathIQ™ (ID Business Solutions Ltd., UK).

Series [2] relates to NCI-H524 (ATCC) human lung cancer cells. Type of series: cell-based. The procedure:
FIG. 1 is a graph of various conjugates represented as bars and showing on the Y-axis their activity in an H524 proliferation assay with and without competition by octreotide. […] This illustrates the suprprising finding that only maytansinoid conjugates show activity that is dependent on the receptor.
Conjugates were assessed in an in vitro assay evaluating inhibition of cell proliferation. NCI-H524 (ATCC) human lung cancer cells were plated in 96 well, V-bottomed plates (Costar) at a concentration of 5,000 cells/well and 24 hours later were treated with compound for 6 hours and further incubated 66 hours. Compound starting dose was 20 μM and three fold serial dilutions were done for a total of ten points. After 6 hours of treatment, cells were spun down, the drug containing media was removed, and fresh complete medium was added and used to resuspend the cells, which were spun again. After removal of the wash media, the cells were resuspended in complete medium, then transferred into white walled, flat bottomed 96 well plates. […] Proliferation was measured using CellTiter Glo reagent using the standard protocol (Promega) and a Glomax multi+detection system (Promega). Percent proliferation inhibition was calculated using the following formula: % inhibition=(control-treatment)/control*100. Control is defined as vehicle alone. IC50 curves were generated using the nonlinear regression analysis (four parameter) with GraphPad Prism 6.
Conjugates were tested for their activity dependence on the somatostatin receptor. Active agent Z in the conjugate was selected from auristatin, carbazitaxel, DM1, doxorubicin, platinum, SN-38 and vinblastine. Active agent Z is connected to octreotide with various linkers. Proliferation IC50 values of the conjugates were measured. Proliferation IC50 values of the conjugates without octreotide competition were also measured. The ratio of IC50 with octreotide competition and IC50 without octreotide competition is an indicator of whether activity is at least particially dependent on bind to the somatostatin receptor. […] Therefore, the activity of conjugates comprising DM1 is dependent on the binding to the somatostatin receptor.

Setting [3] is: read-out: H524 IC50 6 h, 6 hours treatment, further 66 hours incubation.
Setting [4] is: read-out: H524 IC50 with 100 μM octreotide 6 h, with 100 μM octreotide competition, 6 h treatment.

human SSTR2, sequence (P30874 whole entry): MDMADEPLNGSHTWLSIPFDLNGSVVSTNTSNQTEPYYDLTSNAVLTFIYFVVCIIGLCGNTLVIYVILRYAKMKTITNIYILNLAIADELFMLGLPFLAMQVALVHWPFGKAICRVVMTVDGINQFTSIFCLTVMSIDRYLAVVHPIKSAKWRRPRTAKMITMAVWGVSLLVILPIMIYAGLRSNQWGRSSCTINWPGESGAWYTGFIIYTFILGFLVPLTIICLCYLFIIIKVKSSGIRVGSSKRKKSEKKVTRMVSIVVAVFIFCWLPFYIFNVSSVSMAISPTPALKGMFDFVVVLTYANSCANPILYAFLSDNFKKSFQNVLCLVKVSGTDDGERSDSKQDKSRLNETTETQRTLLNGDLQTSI

Take `COc1cc2cc(c1Cl)N(C)C(=O)C[C@H](OC(=O)[C@H](C)N(C)C(=O)CCSSC[C@H](NC(=O)[C@@H]1CSSC[C@H](NC(=O)[C@@H](Cc3ccccc3)NCc3ccccc3)C(=O)N[C@@H](Cc3ccc(O)cc3)C(=O)N[C@H](Cc3c[nH]c4ccccc34)C(=O)N[C@@H](CCCCN)C(=O)N[C@@H]([C@@H](C)O)C(=O)N1)C(N)=O)[C@]1(C)O[C@H]1[C@H](C)[C@@H]1C[C@@](O)(NC(=O)O1)[C@H](OC)/C=C/C=C(\C)C2` [Conjugate 43]: the Ligand charge result in series [1] is “+2”. In addition, the Ki (usually a dissociation constant, usually derived from enzyme kinetics or from competition with a known ligand) at human SSTR2 came out at 0.075 nM. Moreover, the IC50 (as a rule, the concentration that inhibits the measured activity by half) worked out at 7.2 nM in series [2] (setting [3]) and 20 nM in series [2] (setting [4]).
On to `COc1cc2cc(c1Cl)N(C)C(=O)C[C@H](OC(=O)[C@H](C)N(C)C(=O)CCSSC(C)(C)[C@H](NC(=O)[C@@H]1CSSC[C@H](NC(=O)[C@H](N)Cc3ccccc3)C(=O)N[C@@H](Cc3ccc(O)cc3)C(=O)N[C@H](Cc3c[nH]c4ccccc34)C(=O)N[C@@H](CCCCNC(=O)[C@@H](NC(=O)[C@@H](N)C(C)C)C(C)C)C(=O)N[C@@H]([C@@H](C)O)C(=O)N1)C(N)=O)[C@]1(C)O[C@H]1[C@H](C)[C@@H]1C[C@@](O)(NC(=O)O1)[C@H](OC)/C=C/C=C(\C)C2` [Conjugate 58], for which, in series [1], the Ligand charge result is given as “+2”. Also, on human SSTR2, the Ki stood at 3980 nM. The IC50 came to 90 nM in series [2] (setting [3]) and 250 nM in series [2] (setting [4]).
For `COc1cc2cc(c1Cl)N(C)C(=O)C[C@H](OC(=O)[C@H](C)N(C)C(=O)CCSSC[C@@H](NC(=O)[C@@H]1CSSC[C@H](NC(=O)[C@@H](Cc3ccccc3)NC(=O)C(F)(F)F)C(=O)N[C@@H](Cc3ccc(O)cc3)C(=O)N[C@H](Cc3c[nH]c4ccccc34)C(=O)N[C@@H](CCCCN)C(=O)N[C@@H]([C@@H](C)O)C(=O)N1)C(N)=O)[C@]1(C)O[C@H]1[C@H](C)[C@@H]1C[C@@](O)(NC(=O)O1)[C@H](OC)/C=C/C=C(\C)C2` [Conjugate 32], the Ligand charge entry in series [1] was “+1”. Further, the inhibition constant (Ki) at human SSTR2 was determined as 0.82 nM. In addition, the IC50 is 33 nM in series [2] (setting [3]) and 98 nM in series [2] (setting [4]).
Turning to `COc1cc2cc(c1Cl)N(C)C(=O)C[C@H](OC(=O)[C@H](C)N(C)C(=O)CCSSCCNC(=O)CC[C@H](NC(=O)[C@@H]1CSSC[C@H](NC(=O)[C@H](N)Cc3ccccc3)C(=O)N[C@@H](Cc3ccc(O)cc3)C(=O)N[C@H](Cc3c[nH]c4ccccc34)C(=O)N[C@@H](CCCCN)C(=O)N[C@@H]([C@@H](C)O)C(=O)N1)C(N)=O)[C@]1(C)O[C@H]1[C@H](C)[C@@H]1C[C@@](O)(NC(=O)O1)[C@H](OC)/C=C/C=C(\C)C2` [Conjugate 47], the Ligand charge result in series [1] is given as “+2”. In addition, affinity at human SSTR2 was put at a Ki of 0.072 nM. Further, the IC50 in series [2] (setting [3]) came to 0.7 nM; in series [2] (setting [4]) it was 210 nM.
Regarding `COc1cc2cc(c1Cl)N(C)C(=O)C[C@H](OC(=O)[C@H](C)N(C)C(=O)CCSSC(C)(C)[C@H](NC(=O)CC[C@H](NC(=O)[C@@H]1CSSC[C@H](NC(=O)[C@H](N)Cc3ccccc3)C(=O)N[C@@H](Cc3ccc(O)cc3)C(=O)N[C@H](Cc3c[nH]c4ccccc34)C(=O)N[C@@H](CCCCN)C(=O)N[C@@H]([C@@H](C)O)C(=O)N1)C(N)=O)C(N)=O)[C@]1(C)O[C@H]1[C@H](C)[C@@H]1C[C@@](O)(NC(=O)O1)[C@H](OC)/C=C/C=C(\C)C2` [Conjugate 18], the Ligand charge result in series [1] is given as “+2”. This compound displayed a Ki on human SSTR2 of 0.18 nM. Further, the IC50 was 19 nM in series [2] (setting [3]) and 353 nM in series [2] (setting [4]).
In the same order, the values of `COc1cc2cc(c1Cl)N(C)C(=O)C[C@H](OC(=O)[C@H](C)N(C)C(=O)CCSC1CC(=O)N(CCCNC(=O)CC[C@H](NC(=O)[C@@H]3CSSC[C@H](NC(=O)[C@H](N)Cc4ccccc4)C(=O)N[C@@H](Cc4ccc(O)cc4)C(=O)N[C@H](Cc4c[nH]c5ccccc45)C(=O)N[C@@H](CCCCN)C(=O)N[C@@H]([C@@H](C)O)C(=O)N3)C(N)=O)C1=O)[C@]1(C)O[C@H]1[C@H](C)[C@@H]1C[C@@](O)(NC(=O)O1)[C@H](OC)/C=C/C=C(\C)C2` (some centres unmarked) [Conjugate 48] are “+2”, 0.21 nM, 9 nM and 157 nM.
In the same order, the values of `COc1cc2cc(c1Cl)N(C)C(=O)C[C@H](OC(=O)[C@H](C)N(C)C(=O)CCSSC(C)(C)[C@H](NC(=O)[C@@H]1CSSC[C@H](NC(=O)[C@@H](Cc3ccccc3)NC(=O)NCc3ccc(C(F)(F)F)cc3)C(=O)N[C@@H](Cc3ccc(O)cc3)C(=O)N[C@H](Cc3c[nH]c4ccccc34)C(=O)N[C@@H](CCCCN)C(=O)N[C@@H]([C@@H](C)O)C(=O)N1)C(N)=O)[C@]1(C)O[C@H]1[C@H](C)[C@@H]1C[C@@](O)(NC(=O)O1)[C@H](OC)/C=C/C=C(\C)C2` [Conjugate 15] are “+1”, 0.077 nM, 17 nM and 262 nM.
As for `COc1cc2cc(c1Cl)N(C)C(=O)C[C@H](OC(=O)[C@H](C)N(C)C(=O)CCSSC[C@H](NC(=O)CC[C@H](NC(=O)[C@@H]1CSSC[C@H](NC(=O)[C@H](N)Cc3ccccc3)C(=O)N[C@@H](Cc3ccc(O)cc3)C(=O)N[C@H](Cc3c[nH]c4ccccc34)C(=O)N[C@@H](CCCCN)C(=O)N[C@@H]([C@@H](C)O)C(=O)N1)C(N)=O)C(N)=O)[C@]1(C)O[C@H]1[C@H](C)[C@@H]1C[C@@](O)(NC(=O)O1)[C@H](OC)/C=C/C=C(\C)C2` [Conjugate 46], the Ligand charge result in series [1] was “+2”. In addition, on human SSTR2, the Ki is 0.045 nM. For the same compound, the IC50 came to 0.3 nM in series [2] (setting [3]) and 195 nM in series [2] (setting [4]).
As for `COc1cc2cc(c1Cl)N(C)C(=O)C[C@H](OC(=O)[C@H](C)N(C)C(=O)CCSSC[C@H](NC(=O)[C@@H]1CSSC[C@H](NC(=O)[C@@H](Cc3ccccc3)NC(C)=O)C(=O)N[C@@H](Cc3ccc(O)cc3)C(=O)N[C@H](Cc3c[nH]c4ccccc34)C(=O)N[C@@H](CCCCN)C(=O)N[C@@H]([C@@H](C)O)C(=O)N1)C(N)=O)[C@]1(C)O[C@H]1[C@H](C)[C@@H]1C[C@@](O)(NC(=O)O1)[C@H](OC)/C=C/C=C(\C)C2` [Conjugate 27], the Ligand charge result in series [1] is reported as “+1”. The same compound had an inhibitory constant (Ki) at human SSTR2 of 0.15 nM. Besides, the IC50 turned out to be 17 nM in series [2] (setting [3]) and 49 nM in series [2] (setting [4]).
Turning to `COc1cc2cc(c1Cl)N(C)C(=O)C[C@H](OC(=O)[C@H](C)N(C)C(=O)CCSSC[C@H](NC(=O)[C@@H]1CSSC[C@H](NC(=O)[C@@H](Cc3ccccc3)NC(=O)NC3CCCCC3)C(=O)N[C@@H](Cc3ccc(O)cc3)C(=O)N[C@H](Cc3c[nH]c4ccccc34)C(=O)N[C@@H](CCCCN)C(=O)N[C@@H]([C@@H](C)O)C(=O)N1)C(=O)NCc1ccccc1)[C@]1(C)O[C@H]1[C@H](C)[C@@H]1C[C@@](O)(NC(=O)O1)[C@H](OC)/C=C/C=C(\C)C2` [Conjugate 26], the Ligand charge result in series [1] is “+1”. Also, on human SSTR2, affinity was put at a Ki of 1.42 nM. Moreover, the IC50 in series [2] (setting [3]) was 30 nM; in series [2] (setting [4]), 106 nM.
With `COc1cc2cc(c1Cl)N(C)C(=O)C[C@H](OC(=O)[C@H](C)N(C)C(=O)CCSSC(C)(C)[C@@H](NC(=O)[C@@H]1CSSC[C@H](NC(=O)[C@H](N)Cc3ccccc3)C(=O)N[C@@H](Cc3ccc(O)cc3)C(=O)N[C@H](Cc3c[nH]c4ccccc34)C(=O)N[C@@H](CCCCN)C(=O)N[C@@H]([C@@H](C)O)C(=O)N1)C(N)=O)[C@]1(C)O[C@H]1[C@H](C)[C@@H]1C[C@@](O)(NC(=O)O1)[C@H](OC)/C=C/C=C(\C)C2` [Conjugate 8], the Ligand charge entry in series [1] is reported as “+2”. Further, the Ki at human SSTR2 was determined as 0.79 nM. Also, the IC50 worked out at 270 nM in series [2] (setting [3]) and 467 nM in series [2] (setting [4]).
